≈ marks a conversion by molar mass, not a printed value. Starred links: 1 amine or outer side, 2 acyl side, 3 side chain; linkers in the order of their positions; H or OH if unused. Positions of bridges follow the written chain, without caps; N, C: chain ends. Non-standard residues stand in square brackets, D forms with d. Residues, ends and D or L forms follow the SMILES beside them. *: point of attachment. hTyr(3S-OH,4S-OH,3'-OSO3H) = N[C@H](C(=O)O)[C@H](O)[C@@H](O)c1ccc(O)c(OS(=O)(=O)O)c1; Orn(4R-OH,5R-OH) = O=C([C@H](C[C@@H](O)[C@@H](O)N[*:3])N[*:1])[*:2]; Pro(3S-OH,4S-Me) = C[C@H]1CN[C@H](C(=O)O)[C@H]1O; X1 = CCCCCOc1ccc(-c2cc(-c3ccc(C(=O)*)cc3)no2)cc1; Gln(3R-OH) = NC(=O)C[C@@H](O)[C@H](N)C(=O)O; Hyp = O=C(O)[C@@H]1C[C@@H](O)CN1
Columns and labels:
[1] = test system: strain TOP of C. albicans; assay: Etest method (MIC); format: cell-based, Candida albicans; conditions: RPMI medium plates, 24 h at 35° C.
Experimental: (§1) The Etest® method is a commercial test for determining the sensitivity of a strain, most frequently used routinely in clinical mycology laboratories.
(§2) The Etest® tests were performed according to the manufacturer's instructions. After distributing a standardised Mac Farland 0.5 inoculum (equivalent of […]) over plates of RPMI medium, said plates were incubated for 24 h at 35° C., with the exception of C. glabrata in which case the incubation was extended to 48 h so as to be able to determine the minimum inhibitory concentration (MIC).
(§3) The results of the MICs obtained were interpreted in accordance with the tables of the CLSI (Clinical and Laboratory Standards Institute) and/or of EUCAST (European Committee on Antimicrobial Susceptibility Testing) (Arendrup M C, Cuenca-Estrella M, Lass-Flörl C, Hope W W (2014) Breakpoints for antifungal agents: an update from EUCAST focussing on echinocandins against Candida spp and triazoles against Aspergillus spp. Drug Resist Updat 16(6):81-95. doi:10.1016/j.drup.2014.01.001) (cf. Table 2 taken from Maubon D, Garnaud C, Calandra T, et al. (2014) Resistance of Candida spp. to antifungal drugs in the ICU: where are we now? Intensive Care Med. doi: 10.1007/s00134-014-3404-7) which list the clinical thresholds (CBPs) for the most common species of yeast of the genus Candida as a function of different antifungal agents, or according to the table of epidemiological thresholds (ECVs).

[2] = test system: strain TOP of C. albicans; assay: Sensitivity test by HCA microscopy (chitin level, Calcofluor White); format: cell-based, Candida albicans; conditions: 6.5 h at 30° C., SC medium
Experimental: (§4) The strains of Candida were incubated beforehand at 30° C. overnight in a yeast extract medium—peptone dextrose (YPD) (1% bacto peptone, 0.5% yeast extract, 2% glucose, 1.5% agar).
(§5) Yeast colonies were then removed from YPD medium plates and suspended in a 0.9% NaCl saline solution, in which the cell concentration was estimated by optical microscopy using Kova counting slides. […]
(§6) A step of acquiring images by automated fluorescence microscopy (ScanR screening station, Olympus), using a 40× lens and a CFW filter, made it possible to obtain 30 images per well so as to capture enough cells to provide statistically significant data. These images were analysed by software (ScanR analysis software, Olympus). Firstly, the background noise was processed so as to improve the contrast between the fluorescence of the yeasts and background noise. […] Segmentation of the fluorescent elements present in each of the acquired images was then performed using an algorithm predefined in the software, making it possible to determine the limit of each element on the basis of the fluorescence intensity of said element. […]
(§7) Each element then corresponding to a yeast, it was thus possible, on the basis of these elements predefined beforehand, to define the fluorescence intensity for each of the yeasts, this intensity being directly correlated with the chitin content of their wall. […]

[3] = test system: strain 13/5 of C. tropicalis; assay: Etest method (MIC); format: cell-based, Candida tropicalis; conditions: RPMI medium plates, 24 h at 35° C.
Experimental: as §1, §2, §3

[4] = test system: strain 13/5 of C. tropicalis; assay: Sensitivity test by HCA microscopy (chitin level, Calcofluor White); format: cell-based, Candida tropicalis; conditions: 6.5 h at 30° C., SC medium
Experimental: as §4, §5, §6, §7

[5] = vs cells in the absence of antifungal agent, concentration gradient up to 1 μg/ml

CCCCCOc1ccc(-c2cc(-c3ccc(C(=O)N[C@H]4C[C@@H](O)[C@@H](O)NC(=O)[C@@H]5[C@@H](O)[C@@H](C)CN5C(=O)[C@H]([C@H](O)CC(N)=O)NC(=O)[C@H]([C@H](O)[C@@H](O)c5ccc(O)c(OS(=O)(=O)O)c5)NC(=O)[C@@H]5C[C@@H](O)CN5C(=O)[C@H]([C@@H](C)O)NC4=O)cc3)no2)cc1 [micafungin] (X1-[Orn(4R-OH,5R-OH)]T[Hyp][hTyr(3S-OH,4S-OH,3'-OSO3H)][Gln(3R-OH)][Pro(3S-OH,4S-Me)]; lactam 1-C)
MIC ([1]; Candida albicans): 1 µg/mL (≈ 0.787 µM) | phenotype by Etest MIC, interpretation by the EUCAST and CLSI tables [1]: resistant | phenotype of the strain with respect to the antifungal agent (HCA) [2]: resistant (an increase in the chitin level having a value less than 10% or a decrease in the chitin level of less than 20% or an unchanged chitin level) | increase in the chitin level in the wall of the cells [2, 5]: less than 10% | MIC ([3]; Candida tropicalis): 1.5 µg/mL (≈ 1.18 µM) | phenotype by Etest MIC, interpretation by the CLSI table [3]: resistant | phenotype of the strain with respect to the antifungal agent (HCA) [4]: resistant (an increase in the chitin level having a value less than 10% or a decrease in the chitin level of less than 20% or an unchanged chitin level) | increase in the chitin level in the wall of the cells [4, 5]: less than 10%

— US11415513B2, “Method for determining the degree of sensitivity of a strain of fungus to an antifungal agent” (UNIVERSITE GRENOBLE ALPES, priority 2015, dated 2022)
